One assay deals with T1, mutant MGL (Homo sapiens, UniProt Q99685, L169S/L176S).
T1 sequence (Q99685 1-303 L169S/L176S): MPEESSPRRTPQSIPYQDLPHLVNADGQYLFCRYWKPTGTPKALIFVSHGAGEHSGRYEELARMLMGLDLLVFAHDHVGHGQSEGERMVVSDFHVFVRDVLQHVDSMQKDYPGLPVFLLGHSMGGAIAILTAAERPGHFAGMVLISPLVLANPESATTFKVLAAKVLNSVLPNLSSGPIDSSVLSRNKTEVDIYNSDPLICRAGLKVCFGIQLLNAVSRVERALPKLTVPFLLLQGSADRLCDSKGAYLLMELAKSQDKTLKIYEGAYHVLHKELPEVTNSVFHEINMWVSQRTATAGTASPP
The experiment in a line: MGL ThermoFluor assay - mutant. The class given is binding. In general terms: Differential scanning fluorimetry follows unfolding on heating by fluorescence.

Assay [1] concerns the target T2, purified wild type MGL (wt-MGLL 6H-11-313) (Homo sapiens, UniProt Q99685).
T2 sequence (Q99685 1-303): T1 sequence (Q99685 1-303 L169S/L176S) with S169L, S176L

Setting [2] is: ThermoFluor, compound concentration measured by qNMR, read-out: MGL mutant ThermoFluor qKd (μM) (using qNMR conc.).
Where [3] appears, read: ThermoFluor thermal stability binding assay, read-out: MGL mutant ThermoFluor Kd.
[4] abbreviates: ThermoFluor concentration-response, read-out: MGL mutant ThermoFluor Kd.

20 molecules from patent US8362000B2, “Azetidinyl diamides as monoacylglycerol lipase inhibitors” (Janssen Pharmaceutica NV, priority 2009, dated 2013) can be followed below.

Structures are written as SMILES. Numbering of substitutions follows the chain as printed. Where two headings read alike, the source gives them in different places.

Usually IC50 stands for the point on the concentration scale where inhibition reaches its midpoint. Turning to `O=C(c1ccc2c(ccn2Cc2cccnc2)c1)N1CC(N2CCN(C(=O)c3nccs3)CC2)C1` [Cpd 1048], the Kd at mutant MGL (compound concentration measured by qNMR, read-out: MGL mutant ThermoFluor qKd (using qNMR conc.)) was 0.146 µM. Further, in assay [1], the midpoint of inhibition, the IC50, lay at 695 nM.

On to `COc1cncc(-c2ccc3cc(C(=O)N4CC(N5CCN(C(=O)c6nccs6)CC5)C4)[nH]c3c2)c1` [Cpd 1196], for which the Kd on mutant MGL (setting [2]) was determined as 0.37 µM. This molecule gave an IC50 in assay [1] of 123 nM.

For `O=C(c1ccc2nn(-c3cccc(OC(F)(F)F)c3)cc2c1)N1CC(N2CCN(C(=O)c3nccs3)CC2)C1` [Cpd 1376], on mutant MGL (setting [2]), the Kd was determined as 0.013 µM. Further, in assay [1], the IC50 was less than 5 nM.

With `O=C(c1cscn1)N1CCN(C2CN(C(=O)c3cc(-c4ccccc4)n(-c4ccccc4)n3)C2)CC1` [Cpd 1261], the Kd at mutant MGL (setting [3]) was found to be 0.831 µM. Moreover, the IC50 in assay [1] came to 932 nM.

For the molecule `O=C(c1ccc2c(c1)CCN2)N1CC(N2CCN(C(=O)c3nccs3)CC2)C1` [Cpd 829, 5-({3-[4-(1,3-Thiazol-2-ylcarbonyl)piperazin-1-yl]azetidin-1-yl}carbonyl)-2,3-dihydro-1H-indole], at mutant MGL (setting [3]), the Kd was 0.5 µM. The IC50 in assay [1] was 3900 nM.

`O=C(c1ccccc1)N1CCN(C2CN(C(=O)c3ccc(CS(=O)(=O)c4cccc(C(F)(F)F)c4)cc3)C2)CC1` [Cpd 564]: the Kd on mutant MGL (setting [4]) worked out at 10 µM. In assay [1], this molecule displayed an IC50 of 5400 nM.

`O=C(c1cccc(-c2ccc(C(F)(F)F)cc2)c1)N1CC(N2CCN(C(=O)c3cscn3)CC2)C1` [Cpd 1278]: the Kd on mutant MGL (setting [4]) was 5.19 µM. The molecule further came in with an IC50 in assay [1] of 1860 nM.

As to `O=C(c1ccc(-c2ccccc2)cc1)N1CC(N2CCN(C(=O)c3c[nH]nn3)CC2)C1` [Cpd 1269], at mutant MGL (setting [3]), the Kd amounted to 1.16 µM. In assay [1], this molecule yielded an IC50 of 1260 nM.

Take `Cc1c(C(=O)N2CCN(C3CN(C(=O)c4ccc[nH]4)C3)CC2)sc2cc(C(F)(F)F)ccc12` [Cpd 731]: on mutant MGL (setting [4]), the Kd is 0.016 µM. Further, in assay [1], the IC50 was 238 nM.

For `Cc1c(C(=O)N2CC(N3CCN(C(=O)c4ccccc4)CC3)C2)sc2cc(F)ccc12` [Cpd 516], the Kd at mutant MGL (setting [3]) was 0.04 µM. Moreover, the IC50 in assay [1] is 465 nM.

For `O=C(Nc1ccc(C(=O)N2CC(N3CCN(C(=O)c4nccs4)CC3)C2)cc1)C1CCCCC1` [Cpd 709], the Kd on mutant MGL (setting [4]) is 0.015 µM. Further, half-maximal inhibition in assay [1] (IC50) was put at 118 nM.

With `O=C(c1ccc(Cc2cccc(C(F)(F)F)c2)cc1)N1CC(N2CCN(C(=O)c3nccs3)CC2)C1` [Cpd 995], the Kd on mutant MGL (setting [4]) amounted to 0.002 µM. In addition, in assay [1], the IC50 was less than 5 nM.

`CCCCCCCCCCCCCCCCCCCC(=O)N1CC(N2CCN(C(=O)c3nccs3)CC2)C1` [Cpd 640]: at mutant MGL (setting [4]), the Kd came to 25 µM. In addition, the IC50 in assay [1] was 15900 nM.

On to `O=C(c1cnn(-c2ccccc2)n1)N1CC(N2CCN(C(=O)c3nccs3)CC2)C1` [Cpd 1300], for which the Kd on mutant MGL (setting [4]) came to 3.33 µM. Also, the IC50 in assay [1] is 4130 nM.

For `Cc1nc2cc(C(=O)N3CCN(C4CN(C(=O)c5ccccc5)C4)CC3)ccc2n1C1CCCCC1` [Cpd 523], at mutant MGL (setting [4]), the Kd amounted to 0.686 µM. In addition, the IC50 in assay [1] was found to be 3130 nM.

For the molecule `O=C(c1ccc(-c2ccccc2)cc1)N1CCN(C2CN(C(=O)c3cccc(F)c3)C2)CC1` [Cpd 1242, 1-(Biphenyl-4-ylcarbonyl)-4-{1-[(3-fluorophenyl)carbonyl]azetidin-3-yl}piperazine], the Kd on mutant MGL (setting [4]) turned out to be 0.197 µM. Moreover, the IC50 in assay [1] is 461 nM.

Take `O=C(c1cc2cc(Br)cnc2o1)N1CC(N2CCN(C(=O)c3nccs3)CC2)C1` [Cpd 864]: the Kd at mutant MGL (setting [4]) worked out at 2.41 µM. In assay [1], the IC50 was found to be 10200 nM.

For the molecule `O=C(c1ccc(Oc2cc(C(F)(F)F)ccn2)cc1)N1CC(N2CCN(C(=O)c3cscn3)CC2)C1` [Cpd 769], the Kd at mutant MGL (setting [4]) came out at 2 µM. The half-maximal inhibitory concentration (IC50) in assay [1] turned out to be 725 nM.

`O=C(CCCc1ccccc1)N1CC(N2CCN(C(=O)c3nccs3)CC2)C1` [Cpd 1434]: the Kd on mutant MGL (setting [3]) was found to be 53.8 µM. Also, the IC50 in assay [1] was more than 16700 nM.

Turning to `Cc1c(C(=O)N2CCN(C3CN(C(=O)c4ccc[nH]4)C3)CC2)n(C)c2ccc(Cl)cc12` [Cpd 839], the Kd at mutant MGL (ThermoFluor, compound concentration measured by qNMR, read-out: MGL mutant ThermoFluor qKd (using qNMR conc.)) was 2.5 µM. The molecule further gave an IC50 in assay [1] of 5140 nM.
